± gives the uncertainty stated by the source.
Test: xn = mol fraction of the nth substance listed

C1CCCC1 + CCCCO
101 kPa
Conditions	viscosity [mPa·s]
298.15 K, x1 = 0.0281	2.401 ± 0.11
298.15 K, x1 = 0.0729	2.23 ± 0.1
298.15 K, x1 = 0.1366	1.972 ± 0.092
298.15 K, x1 = 0.2131	1.703 ± 0.08
298.15 K, x1 = 0.268	1.533 ± 0.073
298.15 K, x1 = 0.2928	1.448 ± 0.069
298.15 K, x1 = 0.3216	1.358 ± 0.065
298.15 K, x1 = 0.3809	1.205 ± 0.058
298.15 K, x1 = 0.4426	1.035 ± 0.051
298.15 K, x1 = 0.5285	0.8835 ± 0.044
298.15 K, x1 = 0.5981	0.7551 ± 0.039
298.15 K, x1 = 0.6858	0.6361 ± 0.034
298.15 K, x1 = 0.7617	0.5622 ± 0.031
298.15 K, x1 = 0.7948	0.5316 ± 0.029
298.15 K, x1 = 0.8094	0.5193 ± 0.029
298.15 K, x1 = 0.8797	0.4629 ± 0.026
308.15 K, x1 = 0.004	1.958 ± 0.092
308.15 K, x1 = 0.1227	1.614 ± 0.077
308.15 K, x1 = 0.1427	1.583 ± 0.075
308.15 K, x1 = 0.1774	1.556 ± 0.074
308.15 K, x1 = 0.2185	1.381 ± 0.066
308.15 K, x1 = 0.2585	1.358 ± 0.065
308.15 K, x1 = 0.3367	1.164 ± 0.057
308.15 K, x1 = 0.421	1.009 ± 0.05
308.15 K, x1 = 0.494	0.8822 ± 0.044
308.15 K, x1 = 0.5979	0.6995 ± 0.036
308.15 K, x1 = 0.7214	0.5435 ± 0.03
308.15 K, x1 = 0.8382	0.4404 ± 0.025
308.15 K, x1 = 0.9315	0.3813 ± 0.023
308.15 K, x1 = 0.9658	0.3641 ± 0.022
308.15 K, x1 = 0.9781	0.3599 ± 0.022

C1CCCC1 + CC(C)=O
viscosity [mPa·s], 101.33 kPa
Conditions	293.15 K	298.15 K	303.15 K
x1 = 0.0453	0.318 ± 0.006	0.308 ± 0.006	0.29 ± 0.006
x1 = 0.0935	0.319 ± 0.006	0.304 ± 0.006	0.291 ± 0.006
x1 = 0.1869	0.319 ± 0.007	0.304 ± 0.006	0.289 ± 0.006
x1 = 0.2786	0.324 ± 0.007	0.309 ± 0.006	0.294 ± 0.006
x1 = 0.3922	0.333 ± 0.007	0.318 ± 0.007	0.303 ± 0.006
x1 = 0.517	0.344 ± 0.007	0.327 ± 0.007	0.311 ± 0.006
x1 = 0.6026	0.357 ± 0.007	0.338 ± 0.007	0.321 ± 0.007
x1 = 0.6876	0.367 ± 0.007	0.347 ± 0.007	0.332 ± 0.007
x1 = 0.795	0.385 ± 0.008	0.365 ± 0.007	0.347 ± 0.007
x1 = 0.9016	0.408 ± 0.008	0.39 ± 0.008	0.37 ± 0.007
x1 = 0.9511	0.419 ± 0.008	0.397 ± 0.008	0.377 ± 0.008

OCc1ccccc1 + OCCO
293.15 K, 101.33 kPa
Conditions	viscosity [mPa·s]
x2 = 0.0946	7.031 ± 0.056
x2 = 0.1648	7.627 ± 0.06
x2 = 0.1834	7.781 ± 0.06
x2 = 0.2979	8.824 ± 0.066
x2 = 0.4721	10.98 ± 0.077
x2 = 0.5503	12.18 ± 0.084
x2 = 0.6255	13.48 ± 0.091
x2 = 0.6888	14.69 ± 0.097
x2 = 0.7556	16.05 ± 0.1
x2 = 0.7929	16.82 ± 0.11
x2 = 0.8219	17.42 ± 0.11
x2 = 0.8789	18.75 ± 0.12
x2 = 0.9113	19.36 ± 0.12

CCCCCCCCCCCCCC[P+](CCCCCC)(CCCCCC)CCCCCC.[O-]c1ccccc1 + O=C=O
Conditions	viscosity [mPa·s]
298.15 K, 100 kPa, x2 = 0.5	368 ± 14

OCc1ccccc1 + Cc1ccccc1
viscosity [mPa·s]
Conditions	293.15 K	303.15 K	313.15 K	323.15 K
100 kPa, x1 = 0.1006	0.699 ± 0.018	–	–	–
100 kPa, x1 = 0.1997	0.851 ± 0.022	–	–	–
100 kPa, x1 = 0.3007	1.051 ± 0.026	–	–	–
100 kPa, x1 = 0.402	1.329 ± 0.032	–	–	–
100 kPa, x1 = 0.502	1.717 ± 0.04	–	–	–
100 kPa, x1 = 0.6	2.158 ± 0.05	–	–	–
100 kPa, x1 = 0.6925	2.764 ± 0.063	–	–	–
100 kPa, x1 = 0.7994	3.659 ± 0.081	–	–	–
100 kPa, x1 = 0.8995	4.821 ± 0.11	–	–	–
101 kPa, x2 = 0.0973	–	3.563 ± 0.028	2.793 ± 0.023	2.117 ± 0.017
101 kPa, x2 = 0.1952	–	2.788 ± 0.022	2.237 ± 0.018	1.73 ± 0.014
101 kPa, x2 = 0.2937	–	2.226 ± 0.018	1.781 ± 0.015	1.403 ± 0.012
101 kPa, x2 = 0.3927	–	1.758 ± 0.014	1.44 ± 0.012	1.157 ± 0.01
101 kPa, x2 = 0.4924	–	1.386 ± 0.012	1.15 ± 0.01	0.9401 ± 0.0081
101 kPa, x2 = 0.5927	–	1.107 ± 0.009	0.9561 ± 0.0082	0.7918 ± 0.007
101 kPa, x2 = 0.6936	–	0.8989 ± 0.0077	0.7776 ± 0.0068	0.6576 ± 0.0059
101 kPa, x2 = 0.7951	–	0.7359 ± 0.0065	0.6508 ± 0.0059	0.5456 ± 0.0051
101 kPa, x2 = 0.8972	–	0.6154 ± 0.0056	0.5511 ± 0.0051	0.4771 ± 0.0045

NCCO.O=S(=O)([N-]S(=O)(=O)C(F)(F)F)C(F)(F)F.[Li+] + O
323.15 K, 101 kPa
Conditions	viscosity [mPa·s]
x1 = 0.03	1.2 ± 0.11
x1 = 0.0597	2.1 ± 0.19
x1 = 0.1001	3.72 ± 0.32
x1 = 0.1995	8.33 ± 0.71
x1 = 0.298	23.19 ± 2
x1 = 0.4016	56.22 ± 4.7
x1 = 0.4908	103.5 ± 10
x1 = 0.6602	251.5 ± 34
x1 = 0.8109	498.1 ± 86
x1 = 0.8996	741.6 ± 150

CCCCCCCCCCCCCC[P+](CCCCCC)(CCCCCC)CCCCCC.[O-]c1ccccc1 + O
Conditions	viscosity [mPa·s]
298.15 K, 100 kPa, x2 = 0.69	183 ± 6

CN1CCCC1=O + CCC(C)O
viscosity [mPa·s], 101.3 kPa
Conditions	x2 = 0.1049	x2 = 0.4019	x2 = 0.5003
293.15 K	1.815 ± 0.021	–	–
313.15 K	–	1.285 ± 0.015	1.285 ± 0.015

c1ccc(-c2ccccc2)cc1 + CCCCCOC(C)=O
298.15 K, 101 kPa
Conditions	viscosity [mPa·s]
x1 = 0.0249	0.803 ± 0.0099
x1 = 0.0367	0.8121 ± 0.01

CCCC[n+]1ccn(C)c1.C[C@H](N)C(=O)[O-] + OCc1ccccc1
101 kPa
Conditions	viscosity [mPa·s]
298.15 K, x1 = 0.4864	18.75 ± 1.2
313.15 K, x1 = 0.6945	18.65 ± 1.2

NCCO + OCCO
101.33 kPa
Conditions	viscosity [mPa·s]
293.15 K, x2 = 0.1246	29.94 ± 0.35
293.15 K, x2 = 0.2055	32.9 ± 0.38
293.15 K, x2 = 0.2907	35.07 ± 0.4
293.15 K, x2 = 0.4172	36.01 ± 0.41
293.15 K, x2 = 0.496	34.47 ± 0.39
293.15 K, x2 = 0.5176	33.73 ± 0.38
293.15 K, x2 = 0.6654	29.06 ± 0.33
293.15 K, x2 = 0.701	28.14 ± 0.32
293.15 K, x2 = 0.789	25.17 ± 0.28
293.15 K, x2 = 0.8248	23.8 ± 0.27
293.15 K, x2 = 0.8691	22.48 ± 0.25
293.15 K, x2 = 0.9427	21.11 ± 0.24
293.15 K, x2 = 0.9527	20.92 ± 0.24
303.15 K, x1 = 0.155	16.74 ± 0.2
303.15 K, x1 = 0.303	19.61 ± 0.24
313.15 K, x1 = 0.155	11.41 ± 0.14
313.15 K, x1 = 0.303	13.08 ± 0.16
323.15 K, x1 = 0.155	8.112 ± 0.099
323.15 K, x1 = 0.303	9.172 ± 0.11

OCc1ccccc1 + Clc1ccccc1
303.15 K, 101 kPa
Conditions	viscosity [mPa·s]
x1 = 0.1372	0.9498 ± 0.009
x1 = 0.2844	1.158 ± 0.011
x1 = 0.3371	1.26 ± 0.012
x1 = 0.4255	1.459 ± 0.013
x1 = 0.5741	1.907 ± 0.017
x1 = 0.6507	2.212 ± 0.02
x1 = 0.7556	2.713 ± 0.024
x1 = 0.8031	2.982 ± 0.026
x1 = 0.9053	3.662 ± 0.032

CC(=O)OC(C)=O + O
viscosity [mPa·s], 101 kPa
Conditions	x1 = 0.2	x1 = 0.4	x1 = 0.45	x1 = 0.5	x1 = 0.6	x1 = 0.8
298.15 K	2.189 ± 0.018	1.852 ± 0.017	1.497 ± 0.014	1.193 ± 0.012	1.059 ± 0.01	0.936 ± 0.009
313.15 K	1.484 ± 0.018	1.294 ± 0.013	1.104 ± 0.011	0.921 ± 0.009	0.835 ± 0.008	0.735 ± 0.007

NCCO + CN1CCCC1=O
viscosity [mPa·s], 101 kPa
Conditions	293.15 K	298.15 K	303.15 K	308.15 K	313.15 K	318.15 K	323.15 K
x1 = 0.1558	2.99 ± 0.026	2.712 ± 0.023	2.484 ± 0.021	2.293 ± 0.02	2.133 ± 0.018	1.996 ± 0.017	–
x1 = 0.3001	3.547 ± 0.031	3.176 ± 0.028	2.869 ± 0.025	2.612 ± 0.023	2.397 ± 0.021	2.218 ± 0.019	2.065 ± 0.018
x1 = 0.4204	4.72 ± 0.041	4.121 ± 0.036	3.633 ± 0.032	3.236 ± 0.028	2.909 ± 0.026	2.638 ± 0.023	2.415 ± 0.021
x2 = 0.2076	–	–	10.07 ± 0.49	–	6.755 ± 0.35	–	5.018 ± 0.28
x2 = 0.4003	–	–	6.647 ± 0.35	–	4.811 ± 0.27	–	3.622 ± 0.21
x2 = 0.5994	–	–	4.361 ± 0.25	–	3.317 ± 0.19	–	2.559 ± 0.15
x2 = 0.7992	–	–	2.604 ± 0.15	–	2.118 ± 0.13	–	1.799 ± 0.11

CCOC(=O)CC#N + N#CCc1ccccc1
viscosity [mPa·s], 101 kPa
Conditions	x2 = 0.1383	x2 = 0.4842	x2 = 0.8426
303.15 K	2.135 ± 0.025	1.995 ± 0.021	–
313.15 K	–	–	1.535 ± 0.016

CCC(=O)CC + CCOC(=O)OCC
viscosity [mPa·s], 101 kPa
Conditions	x2 = 0.0893	x2 = 0.1498	x2 = 0.2601	x2 = 0.3555	x2 = 0.4667	x2 = 0.5689	x2 = 0.6701	x2 = 0.7565	x2 = 0.8858	x2 = 0.9501
303.15 K	0.452 ± 0.013	0.468 ± 0.014	0.496 ± 0.015	0.521 ± 0.015	0.55 ± 0.016	0.578 ± 0.016	0.606 ± 0.017	0.631 ± 0.018	0.668 ± 0.019	0.686 ± 0.019
308.15 K	0.417 ± 0.013	0.431 ± 0.013	0.457 ± 0.014	0.481 ± 0.014	0.509 ± 0.015	0.535 ± 0.015	0.563 ± 0.016	0.586 ± 0.017	0.622 ± 0.018	0.641 ± 0.018
313.15 K	0.405 ± 0.012	0.417 ± 0.013	0.439 ± 0.013	0.459 ± 0.014	0.484 ± 0.014	0.508 ± 0.015	0.532 ± 0.015	0.554 ± 0.016	0.589 ± 0.017	0.607 ± 0.017
